Experimental data reported in publication PMC9743148 (Annals of oncology : official journal of the European …, 2020).

System: patients with advanced solid tumors
Assay: Treatment-emergent adverse events
Assay type: in vivo, human
[1] = Combined t.i.w. cohorts (n = 42)

C=CC(=O)N1CC[C@H](n2nc(C#Cc3cc(OC)cc(OC)c3)c3c(N)ncnc32)C1 [futibatinib]
0 (0) n (%): Dry mouth TEAE, Grade 3 (Combined q.d. cohorts (n = 44)) | Dry mouth TEAE, Grade 4 (Combined q.d. cohorts (n = 44)) | Dry skin TEAE, Grade 2 (Combined q.d. cohorts (n = 44)) | Dry skin TEAE, Grade 3 (Combined q.d. cohorts (n = 44)) | Dry skin TEAE, Grade 4 (Combined q.d. cohorts (n = 44)) | Fatigue TEAE, Grade 4 (Combined q.d. cohorts (n = 44)) | Headache TEAE, Grade 1 (Combined q.d. cohorts (n = 44)) | Headache TEAE, Grade 4 (Combined q.d. cohorts (n = 44)) | Hypercalcemia TEAE, Any grade (Combined q.d. cohorts (n = 44)) | Hypercalcemia TEAE, Grade 1 (Combined q.d. cohorts (n = 44)) | Hypercalcemia TEAE, Grade 2 (Combined q.d. cohorts (n = 44)) | Hypercalcemia TEAE, Grade 3 (Combined q.d. cohorts (n = 44)) | Hypercalcemia TEAE, Grade 4 (Combined q.d. cohorts (n = 44)) | Hyperphosphatemia TEAE, Grade 4 (Combined q.d. cohorts (n = 44)) | Hypomagnesemia TEAE, Grade 2 (Combined q.d. cohorts (n = 44)) | Hypomagnesemia TEAE, Grade 3 (Combined q.d. cohorts (n = 44)) | Hypomagnesemia TEAE, Grade 4 (Combined q.d. cohorts (n = 44)) | Hyponatremia TEAE, Grade 1 (Combined q.d. cohorts (n = 44)) | Hyponatremia TEAE, Grade 2 (Combined q.d. cohorts (n = 44)) | Hyponatremia TEAE, Grade 4 (Combined q.d. cohorts (n = 44)) | Nausea TEAE, Grade 4 (Combined q.d. cohorts (n = 44)) | Onycholysis TEAE, Grade 2 (Combined q.d. cohorts (n = 44)) | Onycholysis TEAE, Grade 3 (Combined q.d. cohorts (n = 44)) | Onycholysis TEAE, Grade 4 (Combined q.d. cohorts (n = 44)) | Pyrexia TEAE, Grade 4 (Combined q.d. cohorts (n = 44)) | Rash TEAE, Grade 2 (Combined q.d. cohorts (n = 44)) | Rash TEAE, Grade 3 (Combined q.d. cohorts (n = 44)) | Rash TEAE, Grade 4 (Combined q.d. cohorts (n = 44)) | Stomatitis TEAE, Grade 4 (Combined q.d. cohorts (n = 44)) | Treatment discontinuation because of TEAE, Grade 1 (Combined q.d. cohorts (n = 44)) | Treatment discontinuation because of TEAE, Grade 4 (Combined q.d. cohorts (n = 44)) | Urinary tract infection TEAE, Any grade (Combined q.d. cohorts (n = 44)) | Urinary tract infection TEAE, Grade 1 (Combined q.d. cohorts (n = 44)) | Urinary tract infection TEAE, Grade 2 (Combined q.d. cohorts (n = 44)) | Urinary tract infection TEAE, Grade 3 (Combined q.d. cohorts (n = 44)) | Urinary tract infection TEAE, Grade 4 (Combined q.d. cohorts (n = 44)) | Vomiting TEAE, Grade 4 (Combined q.d. cohorts (n = 44)) | ALT increased TEAE, Grade 4 [1]
2 (5) n (%): Headache TEAE, Any grade (Combined q.d. cohorts (n = 44)) | Hyponatremia TEAE, Any grade (Combined q.d. cohorts (n = 44)) | Hyponatremia TEAE, Grade 3 (Combined q.d. cohorts (n = 44)) | Nausea TEAE, Grade 3 (Combined q.d. cohorts (n = 44)) | Stomatitis TEAE, Grade 2 (Combined q.d. cohorts (n = 44)) | Treatment discontinuation because of TEAE, Any grade (Combined q.d. cohorts (n = 44)) | Vomiting TEAE, Grade 3 (Combined q.d. cohorts (n = 44))
8 (18) n (%): Nausea TEAE, Grade 1 (Combined q.d. cohorts (n = 44))
1 (2) n (%): Fatigue TEAE, Grade 3 (Combined q.d. cohorts (n = 44)) | Headache TEAE, Grade 2 (Combined q.d. cohorts (n = 44)) | Headache TEAE, Grade 3 (Combined q.d. cohorts (n = 44)) | Onycholysis TEAE, Any grade (Combined q.d. cohorts (n = 44)) | Onycholysis TEAE, Grade 1 (Combined q.d. cohorts (n = 44)) | Pyrexia TEAE, Grade 2 (Combined q.d. cohorts (n = 44)) | Pyrexia TEAE, Grade 3 (Combined q.d. cohorts (n = 44)) | Rash TEAE, Any grade (Combined q.d. cohorts (n = 44)) | Rash TEAE, Grade 1 (Combined q.d. cohorts (n = 44)) | Stomatitis TEAE, Grade 3 (Combined q.d. cohorts (n = 44)) | Treatment discontinuation because of TEAE, Grade 2 (Combined q.d. cohorts (n = 44)) | Treatment discontinuation because of TEAE, Grade 3 (Combined q.d. cohorts (n = 44)) | ALT increased TEAE, Grade 2 [1] | ALT increased TEAE, Grade 3 [1]
30 (68) n (%): Hyperphosphatemia TEAE, Any grade (Combined q.d. cohorts (n = 44))
9 (20) n (%): Stomatitis TEAE, Any grade (Combined q.d. cohorts (n = 44))
5 (12) n (%): ALT increased TEAE, Any grade [1]
7 (16) n (%): Fatigue TEAE, Any grade (Combined q.d. cohorts (n = 44)) | Hyperphosphatemia TEAE, grade 3 (Combined q.d. cohorts (n = 44))
10 (23) n (%): Hyperphosphatemia TEAE, Grade 2 (Combined q.d. cohorts (n = 44))
4 (10) n (%): AST increased TEAE, Any grade [1]
5 (11) n (%): Pyrexia TEAE, Any grade (Combined q.d. cohorts (n = 44))
6 (14) n (%): Dry skin TEAE, Any grade (Combined q.d. cohorts (n = 44)) | Dry skin TEAE, Grade 1 (Combined q.d. cohorts (n = 44)) | Stomatitis TEAE, Grade 1 (Combined q.d. cohorts (n = 44)) | Vomiting TEAE, Grade 1 (Combined q.d. cohorts (n = 44))
13 (30) n (%): Hyperphosphatemia TEAE, Grade 1 (Combined q.d. cohorts (n = 44)) | Nausea TEAE, Any grade (Combined q.d. cohorts (n = 44))
3 (7) n (%): Fatigue TEAE, Grade 1 (Combined q.d. cohorts (n = 44)) | Fatigue TEAE, Grade 2 (Combined q.d. cohorts (n = 44)) | Hypomagnesemia TEAE, Any grade (Combined q.d. cohorts (n = 44)) | Hypomagnesemia TEAE, Grade 1 (Combined q.d. cohorts (n = 44)) | Nausea TEAE, Grade 2 (Combined q.d. cohorts (n = 44)) | Pyrexia TEAE, Grade 1 (Combined q.d. cohorts (n = 44)) | Vomiting TEAE, Grade 2 (Combined q.d. cohorts (n = 44)) | ALT increased TEAE, Grade 1 [1]
11 (25) n (%): Vomiting TEAE, Any grade (Combined q.d. cohorts (n = 44))
